According to ChEMBL document CHEMBL1833830, “1-[2-(2-Benzoyl- and 2-benzylphenoxy)ethyl]uracils as potent anti-HIV-1 agents” (Bioorg Med Chem, 2011):
In brackets after ≈: the same amount, converted by molar mass. Activity calls are given as the source filed them. The calls are words filed in the database; no cut-off is given here.

What was measured:
[1] = system: Human immunodeficiency virus 1; assay: Antiviral activity against HIV1 3B infected in human CEM cells assessed as inhibition of virus-induced giant cell formation after 4 days by microscopic analysis; assay type: functional, organism-based; conditions: Human immunodeficiency virus 1, 3B, CCRF-CEM, 96 h
[2] = system: Respiratory syncytial virus; assay: Antiviral activity against Respiratory syncytial virus assessed as inhibition of viral replication; assay type: functional, organism-based
Sindbis virus = assay: Antiviral activity against Sindbis virus assessed as inhibition of viral replication; assay type: functional, organism-based
[3] = system: Mammalian orthoreovirus 1; assay: Antiviral activity against Reovirus 1 assessed as inhibition of viral replication; assay type: functional, organism-based
[4] = system: Human immunodeficiency virus 2; assay: Antiviral activity against Human immunodeficiency virus type 2 ROD infected in human CEM cells assessed as inhibition of virus-induced giant cell formation after 4 days by microscopic analysis; assay type: functional, organism-based; conditions: ISOLATE ROD, CCRF-CEM
Feline coronavirus = assay: Antiviral activity against Feline coronavirus assessed as inhibition of viral replication; assay type: functional, organism-based
Vaccinia virus = assay: Antiviral activity against Vaccinia virus assessed as inhibition of viral replication; assay type: functional, organism-based; conditions: Orthopoxvirus vaccinia
[5] = Solubility of the compound in 10% DMSO after overnight incubation by UV spectrometric analysis; assay type: physicochemical
[6] = molecular target: Human immunodeficiency virus type 1 reverse transcriptase (Human immunodeficiency virus 1, UniProt Q72547); assay: Inhibition of RNA-dependent DNA polymerase activity of HIV1 reverse transcriptase p66/p51 heterodimer using [8-3H]dGTP as substrate after 30 mins by liquid scintillation counting
[7] = Selectivity index, ratio of CC50 for human CEM cells to EC50 for HIV1 3B; assay type: toxicity, cell-based, CCRF-CEM; conditions: read-out: Ratio CC50/EC50
Human alphaherpesvirus 2 = assay: Antiviral activity against HSV-2 assessed as inhibition of viral replication; assay type: functional, organism-based
[8] = system: Human immunodeficiency virus 2; assay: Antiviral activity against Human immunodeficiency virus type 2 ROD infected in human MT4 cells assessed as inhibition of virus-induced cytopathic effect after 4 days by MTT assay; assay type: functional, organism-based; conditions: ISOLATE ROD
West Nile virus = assay: Antiviral activity against West Nile virus assessed as inhibition of viral replication; assay type: functional, organism-based
[9] = system: Vesicular stomatitis virus; assay: Antiviral activity against Vesicular stomatitis virus assessed as inhibition of viral replication; assay type: functional, organism-based
[10] = system: Human immunodeficiency virus 1; assay: Inhibition of DNA-dependent DNA polymerase activity of HIV1 reverse transcriptase p66/p66 homodimer using activated DNA and [alpha-32P]dATP after 30 mins by liquid scintillation counting in presence of heparin
[11] = Inhibition of DNA-dependent DNA polymerase activity of HIV1 reverse transcriptase p66/p66 homodimer using activated DNA and [alpha-32P]dATP after 30 mins by liquid scintillation counting; set-up: species or system Human immunodeficiency virus 1
Coxsackievirus B4 = assay: Antiviral activity against Coxsackievirus B4 assessed as inhibition of viral replication; assay type: functional, organism-based
Human respirovirus 3 = assay: Antiviral activity against Parainfluenza 3 virus assessed as inhibition of viral replication; assay type: functional, organism-based
Dengue virus = assay: Antiviral activity against Dengue virus assessed as inhibition of viral replication; assay type: functional, organism-based
Yellow fever virus = assay: Antiviral activity against Yellow fever virus assessed as inhibition of viral replication; assay type: functional, organism-based
Rift Valley fever virus = assay: Antiviral activity against Rift Valley fever virus assessed as inhibition of viral replication; assay type: functional, organism-based
Human alphaherpesvirus 1 = assay: Antiviral activity against HSV1 assessed as inhibition of viral replication; assay type: functional, organism-based
[12] = Solubility of the compound in 0.1% DMSO after overnight incubation by UV spectrometric analysis; assay type: physicochemical
[13] = Cytotoxicity against human CEM cells after 4 days by MTT assay; assay type: cell-based; conditions: CEM cells (CCRF-CEM)
Punta Toro virus = assay: Antiviral activity against Punta Toro virus assessed as inhibition of viral replication; assay type: functional, organism-based
[14] = system: Human immunodeficiency virus 1; assay type: functional, organism-based; conditions: Human immunodeficiency virus 1, 3B, CCRF-CEM, 96 h
in vitro [15] = conditions: human, MT4 cells
[16] = Inhibition of DNA-dependent DNA polymerase activity of HIV1 reverse transcriptase p66/p66 homodimer G190A mutant using activated DNA and [alpha-32P]dATP after 30 mins by liquid scintillation counting; set-up: species or system Human immunodeficiency virus 1
[17] = system: Human immunodeficiency virus 1; assay: Ratio of Ki for HIV1 RT p66/p66 homodimer Y188L mutant to Ki for wild-type HIV1 RT p66/p66 homodimer
[18] = Inhibition of DNA-dependent DNA polymerase activity of HIV1 reverse transcriptase p66/p66 homodimer L100I mutant using activated DNA and [alpha-32P]dATP after 30 mins by liquid scintillation counting; set-up: species or system Human immunodeficiency virus 1
[19] = system: Human immunodeficiency virus 1; assay: Ratio of Ki for HIV1 RT p66/p66 homodimer K103N mutant to Ki for wild-type HIV1 RT p66/p66 homodimer
[20] = system: Human immunodeficiency virus 1
[21] = Inhibition of DNA-dependent DNA polymerase activity of HIV1 reverse transcriptase p66/p66 homodimer V106A mutant using activated DNA and [alpha-32P]dATP after 30 mins by liquid scintillation counting; set-up: species or system Human immunodeficiency virus 1
[22] = system: Human immunodeficiency virus 1; assay: microbe, parasite or virus in culture; conditions: Human immunodeficiency virus 1, 3B, MT4, 96 h
[23] = molecular target: Human immunodeficiency virus type 1 reverse transcriptase (Human immunodeficiency virus 1, UniProt Q72547, K103N)
[24] = system: Human immunodeficiency virus 1; remark: listed apart in the source
[25] = system: Human immunodeficiency virus 1; assay type: functional, organism-based; conditions: Human immunodeficiency virus 1, 3B, MT4, 96 h
[26] = system: Human immunodeficiency virus 1; assay: Ratio of Ki for HIV1 RT p66/p66 homodimer L100I mutant to Ki for wild-type HIV1 RT p66/p66 homodimer
in vitro [27] = conditions: human, MT4 cells; remark: listed apart in the source
[28] = Cytotoxicity against human MT4 cells after 4 days by MTT assay; assay type: cell-based
[29] = Inhibition of DNA-dependent DNA polymerase activity of HIV1 reverse transcriptase p66/p66 homodimer Y188L mutant using activated DNA and [alpha-32P]dATP after 30 mins by liquid scintillation counting; set-up: species or system Human immunodeficiency virus 1
[30] = system: Human immunodeficiency virus 1; assay: Ratio of Ki for HIV1 RT p66/p66 homodimer G190A mutant to Ki for wild-type HIV1 RT p66/p66 homodimer

Row | Structure (SMILES) | Activity [2] | Activity (Sindbis virus) | Activity [3] | Activity [4] | Activity (Feline coronavirus) | Activity (Vaccinia virus) | solubility [5] [µM] | Ki [6] [µM] | Activity (Human alphaherpesvirus 2) | Activity [8] | Activity (West Nile virus) | Activity [9] | Ki [11] [µM] | Activity (Coxsackievirus B4) | Activity (Human respirovirus 3) | Activity (Dengue virus) | Activity (Yellow fever virus) | Activity (Rift Valley fever virus) | Activity (Human alphaherpesvirus 1) | solubility [12] [µM] | further results
1 | Cc1cc(C)cc(Cc2cc(C)ccc2OCCn2ccc(=O)[nH]c2=O)c1 | inactive | inactive | inactive | inactive | inactive | inactive | 184 (≈ 67.2 µg/mL) | 2.7 | inactive | inactive | inactive | inactive | 5.9 | inactive | inactive | inactive | inactive | inactive | inactive | 44.4 (≈ 16.2 µg/mL) | EC50 [1]: 0.13 µM; selectivity ratio [7]: 507; inhibition [10]: Active; CC50 at 96 h [13]: 66 µM; Activity (Punta Toro virus): inactive
2 | Cc1cc(C)cc(Cc2cc(Cl)ccc2OCCn2ccc(=O)[nH]c2=O)c1 | inactive | inactive | inactive | inactive | inactive | inactive | 1.7 (≈ 0.654 µg/mL) | 2.1 | inactive | inactive | inactive | inactive | 5 | inactive | inactive | inactive | inactive | inactive | inactive | 0.9 (≈ 0.346 µg/mL) | EC50 [1]: 0.22 µM; selectivity ratio [7]: > 909; EC50 [14]: > 200 µM; CC50 at 96 h [13]: > 200 µM; Activity (Punta Toro virus): inactive
3 | Cc1cc(C)cc(C(=O)c2cc(Cl)ccc2OCCn2ccc(=O)[nH]c2=O)c1 | inactive | inactive | inactive | inactive | inactive | inactive | 16.6 (≈ 6.62 µg/mL) | 0.52 | inactive | inactive | inactive | inactive | 2.4 | inactive | inactive | inactive | inactive | inactive | inactive | 3.7 (≈ 1.48 µg/mL) | selectivity ratio (in vitro [15]): 1; Ki [16]: 1 µM; Ratio Ki [17]: 4.3; Ki [18]: 3.3 µM; Ratio Ki [19]: 13.8; Ratio Ki [20]: 23.8; Ki [21]: > 1000 µM; EC50 [22]: 0.016 µM; Ki [23]: 33 µM; Ratio Ki [24]: 3.3; EC50 [25]: > 313 µM; Ratio Ki [26]: 1.4; selectivity ratio (in vitro [27]): > 19600; CC50 at 96 h [28]: > 313 µM; Ki [29]: 10 µM; Activity (Punta Toro virus): inactive
4 | O=C(c1cc(Cl)cc(Cl)c1)c1cc(Cl)ccc1OCCn1ccc(=O)[nH]c1=O | inactive | inactive | inactive | inactive | inactive | inactive | 9.4 (≈ 4.13 µg/mL) | 0.82 | inactive | inactive | inactive | inactive | 0.68 | inactive | inactive | inactive | inactive | inactive | inactive | 1.9 (≈ 0.835 µg/mL) | selectivity ratio (in vitro [15]): > 251; Ki [16]: 1.6 µM; Ratio Ki [17]: 12; Ratio Ki [30]: 2.3; Ki [18]: 1.8 µM; Ratio Ki [19]: 8; Ratio Ki [20]: 14.9; Ki [21]: > 1200 µM; EC50 [22]: 0.018 µM; Ki [23]: 5.6 µM; Ratio Ki [24]: 2; EC50 [25]: 1.13 µM; Ratio Ki [26]: 2.5; selectivity ratio (in vitro [27]): > 15800; CC50 at 96 h [28]: > 284 µM; Ki [29]: 8.4 µM; Activity (Punta Toro virus): inactive
